Consider 14 compounds from ChEMBL document CHEMBL1201862, “PubChem BioAssay data set” (2004).

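Growth conditions: 96-well plates. Treatment: test compound, 48 hours, 5 concentrations. Analysis: linear interpolation between bracketing concentrations; unreached endpoints set to highest concentration. GI50 = concentration required for 50% inhibition of growth.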 The source made the active and inactive calls. No stated cut-off is given here; in the data, active = GI50 up to about 1.1 µM and inactive = higher.

Holding throughout (test): DTP human tumour cell line panel, 48 h
The subject of assay [1] is 786-0.
The subject of assay [2] is A549.
Assay [3] relates to EKVX.
Assay [4] has as its system HT-29.
Assay [5] concerns M14.
For assay [6], the system named is OVCAR-8.
The test system of assay [7] is SF-268.
Assay [8] relates to SF-539.
Assay [9] has as its system SK-MEL-5.
Assay [10] has as its system SK-OV-3.
Assay [11] concerns SNB-19.
In assay [12] the test system is SNB-75.
Assay [13] deals with UACC-62.
For assay [14], the system named is UO-31.
The test system of assay [15] is HOP-62.
Assay [16] concerns OVCAR-3.

In general, GI50 refers to the concentration at which growth is held to half of that of the control. As to `CC(=O)/C=C1\CC(=O)Nc2ccccc2N1`, the GI50 in assay [1], in assay [2], in [3], in assay [4], in assay [5] and in [6] was > 100 µM (inactive) throughout. Moreover, the GI50 in [7], in assay [8], in assay [9], in assay [10], in assay [11] and in [12] was > 100 µM (inactive) each time. In addition, the GI50 in assay [13] and in assay [14] was > 100 µM (inactive) throughout.

Regarding `COc1ccc2cc3[n+](cc2c1OC)CCc1cc(O)c(O)cc1-3`, the GI50 in assay [1], in assay [2], in assay [3], in assay [15], in assay [4] and in assay [5] was > 100 µM (inactive) each time. The GI50 in assay [16], in assay [6], in [7], in assay [8], in assay [9] and in [10] was > 100 µM (inactive) throughout. For the same compound, the GI50 in assay [11], in [12], in [13] and in assay [14] was > 100 µM (inactive) in each case.

For the compound `N#C/C(=C\c1cccc(Cl)c1Cl)c1ccccc1`, the GI50 was 37.6 µM (inactive) in [1]; 66.8 µM (inactive) in assay [2]; > 69.5 µM (inactive) in assay [3]; 37 µM (inactive) in assay [15]; > 89.5 µM (inactive) in [4]; 74.5 µM (inactive) in [5]. Also, the GI50 is 46.9 µM (inactive) in [16]; 53.3 µM (inactive) in assay [6]; 58.1 µM (inactive) in assay [7]; 35.1 µM (inactive) in assay [8]; 65.3 µM (inactive) in assay [9]; 45.7 µM (inactive) in assay [10]. The GI50 was > 49.3 µM (inactive) in [11], 19.1 µM (inactive) in assay [12], 58.3 µM (inactive) in assay [13] and 48.1 µM (inactive) in assay [14].

For the compound `CCc1cccc(C(C)C)c1NC(=O)C(=O)C(C(=O)C(=O)OC)c1nc2ccccc2nc1O` (stereo not given), the GI50 in [1] was > 100 µM (inactive); in assay [2] it was > 100 µM (inactive); in [3] it was 44.7 µM (inactive); in [4] it was > 100 µM (inactive); in assay [5], > 100 µM (inactive); in assay [6], > 100 µM (inactive). Besides, the GI50 in [7], in assay [9], in assay [10], in assay [11], in assay [12] and in assay [13] was > 100 µM (inactive) each time. The GI50 in assay [14] was > 100 µM (inactive).

Take `COC(=O)/C(=C/c1ccc(OC)cc1)C(C(=O)O)=C1CCCC1`: the GI50 in assay [1], in [2], in assay [3], in [15], in assay [4] and in [5] was > 100 µM (inactive) throughout. Besides, the GI50 in assay [6], in [8], in assay [9], in assay [10], in assay [11] and in assay [12] was > 100 µM (inactive) throughout. In addition, the GI50 in [13] and in assay [14] was > 100 µM (inactive) each time.

With `C=CCN1COc2c(cc3c4c(cccc24)C(=O)O3)C1`, the GI50 in [1] is 20.5 µM (inactive); in assay [2], > 100 µM (inactive); in [3], 35.7 µM (inactive); in assay [15], > 100 µM (inactive); in assay [4], 23.8 µM (inactive); in assay [5] it was 22.9 µM (inactive). Also, the GI50 in assay [16] was 25.2 µM (inactive); in assay [6], > 100 µM (inactive); in assay [7] it was 48.6 µM (inactive); in [9], 44.1 µM (inactive); in assay [10], > 100 µM (inactive); in [11] it was > 100 µM (inactive). For the same compound, the GI50 in assay [12] was 23.8 µM (inactive); in [13] it was 19.2 µM (inactive); in assay [14], 23.1 µM (inactive).

For the compound `NC(CCc1nc(-c2ccccc2)cs1)C(=O)O` (stereo not given), the GI50 is 81.7 µM (inactive) in assay [1]; > 100 µM (inactive) in assay [2]; > 100 µM (inactive) in [3]; > 100 µM (inactive) in [4]; > 100 µM (inactive) in assay [5]; > 100 µM (inactive) in assay [16]. The GI50 in [6] is > 100 µM (inactive); in assay [8], > 100 µM (inactive); in assay [9] it was > 100 µM (inactive); in assay [10], > 100 µM (inactive); in assay [11] it was > 100 µM (inactive); in assay [12], 59.6 µM (inactive). Further, the figures for the GI50 in assay [13] and in assay [14] were > 100 µM (inactive) and 75.2 µM (inactive), respectively.

With `CC(C)=CCOc1ccc(-c2coc3cc4c(c(O)c3c2=O)C=CC(C)(C)O4)cc1`, the GI50 in assay [1] was 96.8 µM (inactive); in [2], 32.9 µM (inactive); in [3] it was 5.22 µM (inactive); in assay [15] it was > 100 µM (inactive); in [4], > 100 µM (inactive); in assay [16], 2.13 µM (inactive). Besides, the GI50 in [6] was 50.7 µM (inactive); in assay [7], > 100 µM (inactive); in assay [9], 0.207 µM (active); in [11] it was 56 µM (inactive); in [14], > 100 µM (inactive).

For `CCOc1ccc(NC(=O)CC#N)cc1`, the GI50 in assay [1], in assay [2], in [3], in assay [15], in assay [4] and in assay [5] was > 100 µM (inactive) in each case. The GI50 in assay [16], in assay [6], in [7], in assay [9], in [10] and in [11] was > 100 µM (inactive) in each case. In addition, the GI50 in assay [12], in assay [13] and in assay [14] was > 100 µM (inactive) each time.

As to `C/N=C(\N=c1/ss/c(=N\C)n1C)N(C)C.[O-][Cl+3]([O-])([O-])O`, the GI50 is > 100 µM (inactive) in assay [1]; > 100 µM (inactive) in assay [2]; > 100 µM (inactive) in assay [3]; > 100 µM (inactive) in assay [4]; > 100 µM (inactive) in assay [5]; 53.1 µM (inactive) in assay [16]. For the same compound, the GI50 in [6] is 97.1 µM (inactive); in assay [7], > 100 µM (inactive); in assay [8] it was 79.1 µM (inactive); in [9], > 100 µM (inactive); in assay [10] it was > 100 µM (inactive); in assay [11] it was > 100 µM (inactive). For the same compound, the GI50 in assay [12], in assay [13] and in assay [14] was > 100 µM (inactive) in each case.

For `O=C1/C(=C/c2cc(O)c(O)c(O)c2)Oc2cc(O)cc(OC3OC(CO)C(O)C(O)C3O)c21` (stereo not given), the GI50 in [1] was 27.9 µM (inactive); in assay [2] it was 32.4 µM (inactive); in assay [3] it was 43.6 µM (inactive); in assay [4], 23.9 µM (inactive); in assay [5] it was 21.5 µM (inactive); in assay [16] it was 14.9 µM (inactive). Also, the GI50 in assay [6] was 18.2 µM (inactive); in assay [8], > 100 µM (inactive); in [9] it was 13.3 µM (inactive); in [10], 46.1 µM (inactive); in [11], > 100 µM (inactive); in assay [12], > 100 µM (inactive). Besides, the GI50 in assay [13] is 16 µM (inactive); in assay [14] it was 32.4 µM (inactive).

Consider `O=C1C(Cl)C(c2ccccc2)N1n1cnc2ccccc2c1=O` (stereo not given), for which the GI50 is > 100 µM (inactive) in assay [1]; > 100 µM (inactive) in assay [2]; 44.2 µM (inactive) in assay [3]; > 100 µM (inactive) in assay [15]; > 100 µM (inactive) in assay [4]; > 100 µM (inactive) in assay [5]. The GI50 in assay [16] is > 100 µM (inactive); in [6], > 100 µM (inactive); in assay [7] it was 85.3 µM (inactive); in [9], > 100 µM (inactive); in [10] it was 74.6 µM (inactive); in [11], 60.4 µM (inactive). The GI50 was 19.4 µM (inactive) in assay [12], > 100 µM (inactive) in assay [13] and 23.6 µM (inactive) in assay [14].

For the compound `C=CCc1cc(-c2cc(CC=C)c(O)c(CNCCCl)c2)cc(CNCCCl)c1O`, the GI50 is 28.6 µM (inactive) in assay [1]; 24.3 µM (inactive) in assay [2]; 18 µM (inactive) in assay [15]; 17.4 µM (inactive) in assay [4]; 18 µM (inactive) in [5]; 21.4 µM (inactive) in [16]. In addition, the GI50 in assay [6] was 19.9 µM (inactive); in assay [7], 22.6 µM (inactive); in assay [9], 15.3 µM (inactive); in [11], 30 µM (inactive); in assay [12], 12.3 µM (inactive); in [13], 14.6 µM (inactive). Moreover, the GI50 in assay [14] is 14.5 µM (inactive).

Take `CC1CC(C2=CC=CCS2)=Nc2ccccc2S1` (stereo not given): the GI50 in assay [1], in assay [2], in [3], in [15], in [5] and in [16] was > 100 µM (inactive) throughout. Further, the GI50 was > 100 µM (inactive) in assay [6]; > 100 µM (inactive) in assay [7]; > 100 µM (inactive) in [8]; > 100 µM (inactive) in assay [9]; > 100 µM (inactive) in assay [10]; 71.3 µM (inactive) in assay [11]. The GI50 is 14.1 µM (inactive) in assay [12], > 100 µM (inactive) in [13] and > 100 µM (inactive) in [14].
